Results taken from the supplement of paper PMC10307832.

Columns and labels:
Assay in all cases: relative viability (nuclei count vs DMSO), 5 days (fraction); higher = more cells survive
[1] = compound: CCc1c2c(nc3ccc(OC(=O)N4CCC(N5CCCCC5)CC4)cc13)-c1cc3c(c(=O)n1C2)COC(=O)[C@]3(O)CC [Irinotecan] + Nc1ncn([C@H]2C[C@H](O)[C@@H](CO)O2)c(=O)n1 [Decitabine] (partner 2 µM)
Procedure, shortened: (§1)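 Nuclei were stained with Hoechst during a one-step fixation (final 0.05% Triton X-100, 1% formaldehyde, 1 ug/ml Hoechst) carried out 5 days after dosing, then counted on 4× images. The cells, lung cancer lines in 1536-well plates, had been dosed by pin tool the day after seeding with one drug alone or a fixed anchor-drug dose plus five library-drug doses (not always all listed) in √10 steps. Relative viability is the nuclei count in treated wells divided by that in vehicle wells, and each value is the median of duplicate plates.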

[2] = compound: CC[C@@H](C)CNCC(=O)N1CCC2=C([C@@H]1COC3=CC=CC(=C3)C)C=CS2 [RU-SKI 43] + CS(=O)(=O)CCNCc1ccc(-c2ccc3ncnc(Nc4ccc(OCc5cccc(F)c5)c(Cl)c4)c3c2)o1 [Lapatinib] (partner 2 µM)
Procedure, shortened: as §1

[3] = compound: CCc1c2c(nc3ccc(OC(=O)N4CCC(N5CCCCC5)CC4)cc13)-c1cc3c(c(=O)n1C2)COC(=O)[C@]3(O)CC [Irinotecan] + Cc1cc(Nc2cc(N3CCN(C)CC3)nc(Sc3ccc(NC(=O)C4CC4)cc3)n2)n[nH]1 [Tozasertib] (partner 0.1 µM)
Procedure, shortened: as §1

[4] = compound: CC[C@@H](C)CNCC(=O)N1CCC2=C([C@@H]1COC3=CC=CC(=C3)C)C=CS2 [RU-SKI 43] + COc1cc2c(Oc3ccc(NC(=O)C4(C(=O)Nc5ccc(F)cc5)CC4)cc3F)ccnc2cc1OCCCN1CCOCC1 [Foretinib] (partner 0.25 µM)
Procedure, shortened: as §1

Cell Line	relative viability ([1]; first compound 0.6325 µM)	relative viability ([1]; first compound 2 µM)	relative viability ([1]; first compound 6.325 µM)	relative viability ([1]; first compound 20 µM)	relative viability ([2]; first compound 0.1 µM)	relative viability ([2]; first compound 0.3162 µM)	relative viability ([2]; first compound 1 µM)	relative viability ([2]; first compound 3.162 µM)	relative viability ([2]; first compound 10 µM)	relative viability ([3]; first compound 0.6325 µM)	relative viability ([3]; first compound 2 µM)	relative viability ([3]; first compound 6.325 µM)	relative viability ([3]; first compound 20 µM)	relative viability ([4]; first compound 0.1 µM)	relative viability ([4]; first compound 0.3162 µM)	relative viability ([4]; first compound 1 µM)	relative viability ([4]; first compound 3.162 µM)	relative viability ([4]; first compound 10 µM)
NCI-H358	0.183	0.193	0.154	0.0968	0.483	0.545	0.495	0.53	0.448	0.104	0.141	0.145	0.128	0.631	0.749	0.829	0.776	0.489
NCI-H460	0.353	0.317	0.106	0.0426	0.993	1.33	1.55	1.25	1.01	0.374	0.186	0.0861	0.0393	0.923	1.16	1.09	1.13	0.97
NCI-H520	0.392	0.396	0.267	0.195	0.897	0.986	0.996	0.951	0.756	0.446	0.514	0.445	0.427	0.816	0.892	0.812	0.859	0.539
NCI-H596	1.06	0.842	0.85	1.49	1.09	1.06	0.997	1.19	1.14	0.798	0.878	0.632	0.624	0.955	0.676	0.886	0.989	0.931
NCI-H647	0.39	0.238	0.157	0.159	1.24	1.22	1.16	1.25	1.26	0.24	0.294	0.151	0.0868	1.39	1.42	1.25	1.17	1.25
NCI-H650	0.246	0.213	0.168	0.091	0.969	0.837	1.25	–	0.914	0.703	0.553	0.202	0.181	1.05	1.02	1.1	1.09	1.08
NCI-H661	0.532	0.546	0.424	0.168	0.465	0.525	0.511	0.434	0.421	0.372	0.372	0.469	0.333	1.01	1.29	1	1.09	0.894
NCI-H727	0.617	0.751	0.527	0.602	0.797	0.905	0.84	0.839	0.927	0.524	0.551	0.47	0.507	1.11	0.879	1.2	1.07	0.863
NCI-H838	0.444	0.47	0.277	0.18	0.905	0.945	1.12	1.17	1.01	0.283	0.491	0.23	0.242	1.15	0.994	0.987	1.21	0.964
NCI-H1355	–	0.27	0.19	0.242	0.961	1.13	0.897	0.995	0.984	–	0.486	0.311	0.227	0.914	1.22	1.01	1.02	0.936
NCI-H1395	–	0.722	0.522	0.301	1.15	1.04	1.24	1.13	1.24	0.607	0.716	0.594	0.494	0.865	0.985	1.05	1.01	1
NCI-H1437	0.586	0.536	0.391	0.334	0.904	1.08	0.907	1.06	0.746	0.339	0.387	0.312	0.218	1.22	1.24	1.37	1.2	1.22
NCI-H1650	0.322	0.296	0.276	0.207	0.696	0.81	0.885	0.858	0.637	–	0.423	0.366	0.211	1.05	1.22	1.24	1.02	0.887
NCI-H1651	0.264	0.486	0.18	0.137	0.846	0.964	0.98	0.974	0.764	0.532	0.575	0.255	0.183	0.896	0.849	0.864	0.888	0.848
NCI-H1666	0.551	0.62	0.547	0.545	0.58	0.721	0.695	0.615	0.52	0.552	0.543	0.569	0.26	0.922	0.96	0.926	0.773	0.848
NCI-H1734	–	0.27	0.18	0.197	1.08	1.08	1.1	1.08	0.998	–	0.279	0.198	0.33	0.844	0.913	0.938	0.781	0.656
NCI-H1755	0.58	0.503	0.427	0.491	1.03	1.4	1.08	0.995	1.01	0.469	0.463	0.316	0.405	0.935	1.07	0.975	0.979	0.919
NCI-H1793	–	0.315	0.262	0.258	0.69	0.644	0.594	0.673	0.697	–	0.345	0.217	0.219	0.602	0.68	0.738	0.762	0.502
NCI-H1915	0.216	0.189	0.134	0.126	1.02	1.22	1.13	1.03	0.993	0.312	0.27	0.192	0.173	1.19	1.23	1.17	1.15	1.14
NCI-H1944	0.323	0.206	0.149	0.151	0.825	0.793	0.864	0.86	0.817	0.222	0.202	0.167	0.135	0.812	0.878	0.918	1.01	0.819
NCI-H1975	0.374	0.438	0.342	0.141	0.968	1.32	0.867	0.853	1.02	0.929	0.726	0.354	0.199	1.09	1.28	1.01	0.922	0.939
NCI-H1993	–	0.581	0.542	0.6	0.739	0.859	0.717	0.822	1.8	0.582	0.71	0.639	0.644	0.747	0.889	0.786	0.801	0.729
NCI-H2009	0.358	0.32	0.266	0.135	0.899	0.837	0.901	0.964	0.905	0.599	0.566	0.334	0.13	1.21	1.42	1.31	1.24	1.17
NCI-H2023	0.264	0.209	0.141	0.0603	0.773	0.808	1.05	0.849	0.726	0.355	0.408	0.205	0.104	0.954	1.1	0.82	0.828	0.558
NCI-H2085	0.536	0.391	0.38	0.382	0.672	0.719	0.836	0.674	0.686	0.843	0.726	0.505	0.51	0.928	0.772	0.91	0.93	0.934
NCI-H2087	0.146	0.218	0.196	0.159	0.916	1.12	0.947	1.09	0.804	0.184	0.239	0.36	0.192	1.07	1.25	1.24	1.28	0.961
NCI-H2126	0.503	0.372	0.295	0.267	0.797	0.63	0.823	0.779	0.766	–	0.813	0.46	0.206	1.09	1.05	1.17	1.28	1.33
NCI-H2170	0.396	0.222	0.128	0.122	0.259	0.241	0.292	0.273	0.256	0.801	0.701	0.236	0.181	0.994	1.13	1.07	1.09	0.975
NCI-H2347	0.652	0.626	0.599	0.547	0.951	0.829	1.08	1.04	0.726	0.441	0.502	0.546	0.441	1.04	1.04	1.34	0.842	1.06
NCI-H2405	–	0.667	0.411	0.255	1.01	0.964	1.03	1.04	0.956	–	0.605	0.354	0.246	1.08	1.03	1.04	1.09	1.05
